This is an account of results in paper PMC3769177 (Bioorganic & medicinal chemistry letters, 2013).

The subject of the experiment is RD (embryonal) rhabdomyosarcoma cell line. Put plainly: CellTiter-Glo Luminescent Cell Viability Assay, RD cells. To be noted: 48 hours. It is filed as cell-based.

As for `CN1CCN(CCOc2cc(OC3CCOCC3)c3c(Nc4c(Cl)ccc5c4OCO5)ncnc3c2)CC1` [Saracatinib], the “IC50[RD], inhibition of cell survival” value was “did not reach the IC50”.
